Active and inactive are the calls of the source. The calls are words filed in the database; no cut-off is given here.

This passage reports Activity results from ChEMBL document CHEMBL6127153, “Hybrids of Membrane-Translocating Antimicrobial Peptides Show Enhanced Activity through Membrane Permeabilization” (ACS Med Chem Lett, 2024).

The test system of series [1] is Cell membrane. Kind of series: Induction of membrane translocation in Escherichia coli spheroplasts assessed as increase in fluorescence intensity using FITC-labeled compound by confocal microscopy. It is filed as subcellular.
Another series relates to Bacillus subtilis. In words: Antibacterial activity against Bacillus subtilis ATCC6051 assessed as inhibition of bacterial growth at 100 uM incubated for 3 hrs by radial diffusion assay. Type of series: functional, organism-based.
Series [2] deals with Cell membrane. In words: Induction of membrane permeabilization in Escherichia coli assessed as increase in fluorescence intensity at 2 uM by PI staining based fluorescence spectrophotometric analysis. It is filed as subcellular.
A further series has as its system Escherichia coli. Kind of series: Antibacterial activity against Escherichia coli Top10 assessed as inhibition of bacterial growth at 100 uM incubated for 3 hrs by radial diffusion assay. It is filed as functional, organism-based.
In a further series the test system is HEK293. In words: Cytotoxicity against HEK293 cells assessed as effect on cell metabolic activity at 18.2 uM incubated for overnight by MTS assay. The settings on record: human, hek293, 18.2 µM. It is filed as toxicity, cell-based. (In general: Tetrazolium dyes change colour on reduction, which living cells bring about.)

As to `CC[C@H](C)[C@H](NC(=O)[C@H](CCCNC(=N)N)NC(=O)[C@@H](NC(=O)[C@H](CCCCN)NC(=O)[C@H](CCCCN)NC(=O)[C@H](CC(N)=O)NC(=O)[C@H](CC(=O)O)NC(=O)[C@H](CCCNC(=N)N)NC(=O)[C@H](C)N)[C@@H](C)O)C(=O)N[C@@H](Cc1c[nH]c2ccccc12)C(=O)N1CCC[C@H]1C(=O)N[C@@H](CCCNC(=N)N)C(=O)N[C@@H](Cc1cnc[nH]1)C(=O)N[C@@H](CC(C)C)C(=O)N[C@@H](CCC(N)=O)C(=O)N[C@@H](CC(C)C)C(=O)N[C@@H](C)C(=O)N[C@H](C(=O)N[C@@H](CCCNC(=N)N)C(=O)N[C@@H](CC(N)=O)C(=O)N1CCC[C@H]1C(=O)N[C@H](C(=O)N[C@@H](CCCNC(=N)N)C(=O)N[C@@H](CO)C(=O)N[C@@H](CO)C(=O)N[C@@H](CCCNC(=N)N)C(=O)N[C@@H](C)C(=O)NCC(=O)N[C@@H](CC(C)C)C(=O)N[C@@H](CCC(N)=O)C(=O)N[C@@H](Cc1c[nH]c2ccccc12)C(=O)N1CCC[C@H]1C(=O)N[C@H](C(=O)NCC(=O)N[C@@H](CCCNC(=N)N)C(=O)N[C@H](C(=O)N[C@@H](Cc1cnc[nH]1)C(=O)N[C@@H](CCCNC(=N)N)C(=O)N[C@@H](CC(C)C)C(=O)N[C@@H](CC(C)C)C(=O)N[C@@H](CCCNC(=N)N)C(=O)N[C@@H](CCCCN)C(=O)O)C(C)C)C(C)C)[C@@H](C)O)C(C)C`, the outcome in the series with Cell membrane [1], in the series with Bacillus subtilis, in the series on Cell membrane [2] and in the series with Escherichia coli was Active. Moreover, the Activity result in the series with HEK293 is given as “Non-Toxic”.

For the molecule `CC[C@H](C)[C@H](NC(=O)[C@H](CCCNC(=N)N)NC(=O)[C@@H](NC(=O)[C@H](CCCCN)NC(=O)[C@H](CCCCN)NC(=O)[C@H](CC(N)=O)NC(=O)[C@H](CC(=O)O)NC(=O)[C@H](CCCNC(=N)N)NC(=O)[C@H](C)NC(=O)[C@H](CCCCN)NC(=O)[C@H](CCCNC(=N)N)NC(=O)[C@H](CC(C)C)NC(=O)[C@H](CC(C)C)NC(=O)[C@H](CCCNC(=N)N)NC(=O)[C@H](Cc1cnc[nH]1)NC(=O)[C@@H](NC(=O)[C@H](CCCNC(=N)N)NC(=O)CNC(=O)[C@@H](NC(=O)[C@@H]1CCCN1C(=O)[C@H](Cc1c[nH]c2ccccc12)NC(=O)[C@H](CCC(N)=O)NC(=O)[C@H](CC(C)C)NC(=O)CNC(=O)[C@H](C)NC(=O)[C@H](CCCNC(=N)N)NC(=O)[C@H](CO)NC(=O)[C@H](CO)NC(=O)[C@H](CCCNC(=N)N)NC(=O)[C@@H](N)[C@@H](C)O)C(C)C)C(C)C)[C@@H](C)O)C(=O)N[C@@H](Cc1c[nH]c2ccccc12)C(=O)N1CCC[C@H]1C(=O)N[C@@H](CCCNC(=N)N)C(=O)N[C@@H](Cc1cnc[nH]1)C(=O)N[C@@H](CC(C)C)C(=O)N[C@@H](CCC(N)=O)C(=O)N[C@@H](CC(C)C)C(=O)N[C@@H](C)C(=O)N[C@H](C(=O)N[C@@H](CCCNC(=N)N)C(=O)N[C@@H](CC(N)=O)C(=O)O)C(C)C`, the outcome with Cell membrane [1], in the series on Bacillus subtilis, with Cell membrane [2] and in the series on Escherichia coli was Active. The Activity entry in the series with HEK293 is recorded as “Non-Toxic”.

On to `CC[C@H](C)[C@H](NC(=O)[C@H](CCCNC(=N)N)NC(=O)[C@@H](NC(=O)[C@H](CCCCN)NC(=O)[C@H](CCCCN)NC(=O)[C@H](CC(N)=O)NC(=O)[C@H](CC(=O)O)NC(=O)[C@H](CCCNC(=N)N)NC(=O)[C@H](C)N)[C@@H](C)O)C(=O)N[C@@H](Cc1c[nH]c2ccccc12)C(=O)N1CCC[C@H]1C(=O)N[C@@H](CCCNC(=N)N)C(=O)N[C@@H](Cc1cnc[nH]1)C(=O)N[C@@H](CC(C)C)C(=O)N[C@@H](CCC(N)=O)C(=O)N[C@@H](CC(C)C)C(=O)N[C@@H](C)C(=O)N[C@H](C(=O)N[C@@H](CCCNC(=N)N)C(=O)N[C@@H](CC(N)=O)C(=O)N[C@@H](C)C(=O)N[C@H](C(=O)N[C@@H](CCCNC(=N)N)C(=O)N[C@@H](CO)C(=O)N[C@@H](CO)C(=O)N[C@@H](CCCNC(=N)N)C(=O)N[C@@H](C)C(=O)NCC(=O)N[C@@H](CC(C)C)C(=O)N[C@@H](CCC(N)=O)C(=O)N[C@@H](Cc1c[nH]c2ccccc12)C(=O)N1CCC[C@H]1C(=O)N[C@H](C(=O)NCC(=O)N[C@@H](CCCNC(=N)N)C(=O)N[C@H](C(=O)N[C@@H](Cc1cnc[nH]1)C(=O)N[C@@H](CCCNC(=N)N)C(=O)N[C@@H](CC(C)C)C(=O)N[C@@H](CC(C)C)C(=O)N[C@@H](CCCNC(=N)N)C(=O)N[C@@H](CCCCN)C(=O)O)C(C)C)C(C)C)[C@@H](C)O)C(C)C`, for which the outcome in the series on Cell membrane [1], with Bacillus subtilis, in the series on Cell membrane [2] and in the series with Escherichia coli was Active. In addition, the Activity result in the series with HEK293 was “Non-Toxic”.

`CC[C@H](C)[C@H](NC(=O)[C@H](CCCNC(=N)N)NC(=O)[C@@H](NC(=O)[C@H](CCCCN)NC(=O)[C@H](CCCCN)NC(=O)[C@H](CC(N)=O)NC(=O)[C@H](CC(=O)O)NC(=O)[C@H](CCCNC(=N)N)NC(=O)[C@H](C)NC(=O)[C@@H]1CCCN1C(=O)[C@H](CCCCN)NC(=O)[C@H](CCCNC(=N)N)NC(=O)[C@H](CC(C)C)NC(=O)[C@H](CC(C)C)NC(=O)[C@H](CCCNC(=N)N)NC(=O)[C@H](Cc1cnc[nH]1)NC(=O)[C@@H](NC(=O)[C@H](CCCNC(=N)N)NC(=O)CNC(=O)[C@@H](NC(=O)[C@@H]1CCCN1C(=O)[C@H](Cc1c[nH]c2ccccc12)NC(=O)[C@H](CCC(N)=O)NC(=O)[C@H](CC(C)C)NC(=O)CNC(=O)[C@H](C)NC(=O)[C@H](CCCNC(=N)N)NC(=O)[C@H](CO)NC(=O)[C@H](CO)NC(=O)[C@H](CCCNC(=N)N)NC(=O)[C@@H](N)[C@@H](C)O)C(C)C)C(C)C)[C@@H](C)O)C(=O)N[C@@H](Cc1c[nH]c2ccccc12)C(=O)N1CCC[C@H]1C(=O)N[C@@H](CCCNC(=N)N)C(=O)N[C@@H](Cc1cnc[nH]1)C(=O)N[C@@H](CC(C)C)C(=O)N[C@@H](CCC(N)=O)C(=O)N[C@@H](CC(C)C)C(=O)N[C@@H](C)C(=O)N[C@H](C(=O)N[C@@H](CCCNC(=N)N)C(=O)N[C@@H](CC(N)=O)C(=O)O)C(C)C`: the result in the series on Cell membrane [1] was inactive. The result in the series with Bacillus subtilis, in the series with Cell membrane [2] and in the series on Escherichia coli was Active. Also, the Activity entry in the series with HEK293 is “Non-Toxic”.

`CC[C@H](C)[C@H](NC(=O)[C@H](CCCNC(=N)N)NC(=O)[C@@H](NC(=O)[C@H](CCCCN)NC(=O)[C@H](CCCCN)NC(=O)[C@H](CC(N)=O)NC(=O)[C@H](CC(=O)O)NC(=O)[C@H](CCCNC(=N)N)NC(=O)[C@H](C)NC(=O)[C@H](C)NC(=O)[C@H](CCCCN)NC(=O)[C@H](CCCNC(=N)N)NC(=O)[C@H](CC(C)C)NC(=O)[C@H](CC(C)C)NC(=O)[C@H](CCCNC(=N)N)NC(=O)[C@H](Cc1cnc[nH]1)NC(=O)[C@@H](NC(=O)[C@H](CCCNC(=N)N)NC(=O)CNC(=O)[C@@H](NC(=O)[C@@H]1CCCN1C(=O)[C@H](Cc1c[nH]c2ccccc12)NC(=O)[C@H](CCC(N)=O)NC(=O)[C@H](CC(C)C)NC(=O)CNC(=O)[C@H](C)NC(=O)[C@H](CCCNC(=N)N)NC(=O)[C@H](CO)NC(=O)[C@H](CO)NC(=O)[C@H](CCCNC(=N)N)NC(=O)[C@@H](N)[C@@H](C)O)C(C)C)C(C)C)[C@@H](C)O)C(=O)N[C@@H](Cc1c[nH]c2ccccc12)C(=O)N1CCC[C@H]1C(=O)N[C@@H](CCCNC(=N)N)C(=O)N[C@@H](Cc1cnc[nH]1)C(=O)N[C@@H](CC(C)C)C(=O)N[C@@H](CCC(N)=O)C(=O)N[C@@H](CC(C)C)C(=O)N[C@@H](C)C(=O)N[C@H](C(=O)N[C@@H](CCCNC(=N)N)C(=O)N[C@@H](CC(N)=O)C(=O)O)C(C)C`: the result in the series on Cell membrane [1], in the series on Bacillus subtilis, with Cell membrane [2] and in the series with Escherichia coli was Active. Also, the Activity result in the series with HEK293 is “Non-Toxic”.
